This is an account of results in US7906554B2, “Combination chemotherapy compositions and methods” (Novogen Research Pty Ltd, priority 2002, dated 2011).

For series [1], the system named is carboplatin and paclitaxel resistant cells. The series can be described thus: Decrease in cell viability in chemoresistant cells. In kind it is cell-based. On the procedure: (§1) The in vitro studies were performed using ovarian cancer cells isolated from ascites using an immunomagnetic assay and established ovarian cancer cell lines CP70 and A2780. Cell viability was determined using CellTiter©. Apoptosis was evaluated using Hoechst 33342 dye. The in vivo effect was tested by injecting CP70 subcutaneously into nude mice. Animals received daily oral administration of dehydroequol, 10 or 20 mg/kg for 8 days alone or in combination with cisplatin 0.5 mg/kg. After 8 days the animals were sacrificed and the tumour volume was measured.

Series [2] relates to caspase 3. The series can be described thus: Western blot analysis of resistant ovarian cancer cells. The settings on record: chemoresistant cells, only after pre-treatment with dehydroequol (FIG. 5). It counts as cell-based. From the text:
FIG. 5 represents a Western Blot analysis of carboplatin or paclitaxel treatment resistant ovarian cancer CP70 cells with and without dehydroequol pre-treatment.
Additionally, the active form of caspase 3 in chemoresistant cells was not detected.
(In western blotting, separated proteins are transferred to a membrane and probed.)

For series [3], the system named is A2780. The series can be described thus: Cell viability (CellTiter), concurrent dehydroequol and cisplatin. In kind it is cell-based. On the procedure:
(§2) The effect of a composition comprising the platinum complex cisplatin and the isoflavonoid compound dehydroequol (compound No. 12) on various cancer cell lines was assessed on culture plates. Cell viability was determined using CellTiter©. Apoptosis was evaluated using Hoechst 33342 dye.

Series [4] relates to PC3. The series is described as above. It counts as cell-based. On the procedure:
as §2

For series [5], the system named is CP70. Described as above. In kind it is cell-based. As to the method: as §2
The test system of series [6] is HPAC. The series is described as above. In kind it is cell-based. As to the method: as §2
For series [7], the system named is DU145. Described as above. In kind it is cell-based. On the procedure:
as §2

For series [8], the system named is ovarian cancer cells isolated from ascites and ovarian cancer cell lines CP70 and A2780. The series can be described thus: Cell viability (CellTiter) of ovarian cancer cells with or without dehydroequol pre-treatment. It counts as cell-based. As to the method: as §1
The test system of series [9] is paclitaxel resistant cell line, R182. The series is described as follows: Cell viability (CellTiter), paclitaxel resistant cell line. It counts as cell-based. The conditions noted are these: R182, no pre-treatment (FIG. 2). On the procedure: as §1
Series [10] relates to CP70. The series can be described thus: In vivo CP70 tumour injected subcutaneously into nude mice. The conditions noted are these: cisplatin 0.5 mg/kg alone. As to the method: as §1

The structures appear in SMILES notation. Like-named read-outs stand apart in the source and are kept apart here.

One may read the IC50 as the concentration that gives 50% inhibition.

As to `Oc1ccc(C2=Cc3ccc(O)cc3OC2)cc1` [dehydroequol], the figures for the “decrease in cell viability” value in series [1] (pre-treatment alone for 2 h) and in series [1] (treatment for 48 hours) were 20% and 60-80%, respectively. In series [2], the “Caspase 3 activation” value was “Caspase 3 activation was observed”. The half-inhibitory concentration (IC50) in [3] (Homo sapiens, A2780) came out at 1.7 µM; in series [4] (Homo sapiens, PC-3), 9.6 µM; in series [5], 1.5 µM; in [6] (Homo sapiens) it was 50 µM; in [7] (Homo sapiens, DU-145), 5.9 µM.

As to `N.N.O=C([O-])C1(C(=O)[O-])CCC1.[Pt+2]` [carboplatin], the “decrease in cell viability” value in series [1] (pre-treatment (2 h) with DHE followed by the agent for 48 h) is 30%. Also, the “IC50 for carboplatin after dehydroequol pre-treatment” value in [8] (pre-treatment with dehydroequol (10 μg/ml) for two hours, +/−0.5 (FIG. 3)) came to 0.5 µg/mL.

As to `CC(=O)O[C@H]1C(=O)[C@@]2(C)[C@H]([C@H](OC(=O)c3ccccc3)[C@]3(O)C[C@H](OC(=O)[C@H](O)[C@@H](NC(=O)c4ccccc4)c4ccccc4)C(C)=C1C3(C)C)[C@]1(OC(C)=O)CO[C@@H]1C[C@@H]2O` [paclitaxel], the IC50 is above 2 µM in [9] and 0.05 µM in series [8] (Homo sapiens, A2780, pre-treatment with dehydroequol (10 μg/ml) for two hours (FIG. 4), read-out: IC50 for paclitaxel after dehydroequol pre-treatment).

Consider `N.N.[Cl][Pt][Cl]` [Cisplatin, cis-diamminedichloroplatinum (II)], for which the “effect on tumour size” value in series [10] is on record as “no effect”. In addition, the 50% inhibitory concentration (IC50) in series [3] (A2780, co-incubation with 2 uM dehydroequol, read-out: Cisplatin IC50 +2 uM dehydroequol) was below 0.001 µM; in series [3] (A2780, single agent, read-out: IC50) it was 3 µM; in series [4] (PC3, co-incubation with 2 uM dehydroequol, read-out: Cisplatin IC50 +2 uM dehydroequol), below 0.001 µM; in series [4] (PC3, single agent, read-out: IC50), 0.4 µM; in series [5] (CP70, co-incubation with 2 uM dehydroequol, read-out: Cisplatin IC50 +2 uM dehydroequol), 0.1 µM; in series [5] (CP70, single agent, read-out: IC50) it was 10.4 µM. The half-inhibitory concentration (IC50) in [6] (co-incubation with 2 uM dehydroequol, read-out: Cisplatin IC50 +2 uM dehydroequol) was found to be 7.7 µM; in series [6] (single agent, read-out: IC50), 34.5 µM; in series [7] (DU145, co-incubation with 2 uM dehydroequol, read-out: Cisplatin IC50 +2 uM dehydroequol), 0.1 µM; in [7] (DU145, single agent, read-out: IC50), 5 µM.
